Data published in patent publication EP0641797A1, “Cephem derivatives and antimicrobial agents containing the same” (KATAYAMA SEIYAKUSYO CO. Ltd., priority 1993, dated 1995).
Values after ≈ are worked out from the molar mass of the structure shown. Read-outs that look alike come from different tables or passages of the source.

Experiments:
Assay in all cases: MIC on standard strains, standard method of Japan Society of Chemotherapy
Assay type in all cases: cell-based
A. calcoaceticos T59 = conditions: read-out: MIC
Description: (§1) Antimicrobial activity of the compounds of the present invention were measured using CTM (cefotiam) and FMOX (flomoxef) as control drugs in accordance with the standard method of Japan Society of Chemotherapy. Of the 25 standard strains used in this test, Staphylococcus aureus 167 and Staphylococcus aureus 195 belong to MRSA.
(§2) In these tables, drugs tested are shown by the corresponding examples in which they were synthesized.

A. faecalis ATCC 3750 = test system: A. faecalis ATCC 3750
Description: as §1, §2

B. subtilis ATCC 6633 = conditions: Bacillus subtilis, ATCC6633, B. subtilis ATCC 6633; read-out: MIC
Description: as §1, §2

C. freundii ATCC 8090 = conditions: Citrobacter freundii, ATCC8090, C. freundii ATCC 8090; read-out: MIC
Description: as §1, §2

E. cloacae ATCC 13407 = test system: E. cloacae ATCC 13407
Description: as §1, §2

E. cloacae Nek39 = conditions: Enterobacter cloacae, NEK39, E. cloacae Nek39; read-out: MIC
Description: as §1, §2

E. coli CSH2(RE45) = test system: E. coli CSH2(RE45)
Description: as §1, §2

E. coli CSH2(RK1) = conditions: Escherichia coli
Description: as §1, §2

E. coli NHIJ JC-2 = conditions: Escherichia coli, NHIJJC2
Description: as §1, §2

K. pneuminiae IFO 3317 = test system: K. pneuminiae IFO 3317
Description: as §1, §2

K. pneuminiae No. 42 = test system: K. pneuminiae No. 42
Description: as §1, §2

M. luteus ATCC 9341 = conditions: Micrococcus luteus, ATCC9341
Description: as §1, §2

M. morganii IFO 3848 = conditions: Morganella morganii, IFO3848
Description: as §1, §2

P. aeruginosa AKR17 = conditions: Pseudomonas aeruginosa
Description: as §1, §2

P. aeruginosa NCTC 10490 = test system: P. aeruginosa NCTC 10490
Description: as §1, §2

P. cepacia = conditions: Burkholderia cepacia, read-out: MIC
Description: as §1, §2

P. mirabilis IFO 3849 = test system: P. mirabilis IFO 3849
Description: as §1, §2

P. vulugaris OX-19 = test system: P. vulugaris OX-19
Description: as §1, §2

S. aureus 167 = conditions: Staphylococcus aureus; S. aureus 167 (MRSA)
Description: as §1, §2

S. aureus 195 = conditions: Staphylococcus aureus; S. aureus 195 (MRSA)
Description: as §1, §2

S. aureus 209p JC-1 = test system: S. aureus 209p JC-1
Description: as §1, §2

S. aureus Smith = test system: S. aureus Smith
Description: as §1, §2

S. epidemidis IAM 1296 = test system: S. epidemidis IAM 1296
Description: as §1, §2

S. marcescens IAM 1184 = test system: S. marcescens IAM 1184
Description: as §1, §2

S. marcescens No. 16-2 = conditions: Serratia marcescens, NO.162
Description: as §1, §2

[1] = Alcaligenes faecalis, ATCC3750, A. faecalis ATCC 3750, read-out: MIC
[2] = Enterobacter cloacae, ATCC13407, E. cloacae ATCC 13407, read-out: MIC
[3] = Pseudomonas aeruginosa, NCTC10490, P. aeruginosa NCTC 10490, read-out: MIC
[4] = Proteus mirabilis, IFO3849, P. mirabilis IFO 3849, read-out: MIC
[5] = Staphylococcus aureus, 209P, read-out: MIC
[6] = Staphylococcus aureus, read-out: MIC
[7] = Serratia marcescens, IAM1184, S. marcescens IAM 1184, read-out: MIC

SMILES	MIC (A. calcoaceticos T59)	MIC (A. faecalis ATCC 3750; [1])	MIC (B. subtilis ATCC 6633)	MIC (C. freundii ATCC 8090)	MIC (E. cloacae ATCC 13407; [2])	MIC (E. cloacae Nek39)	MIC (E. coli CSH2(RE45); Escherichia coli)	MIC (E. coli CSH2(RK1))	MIC (E. coli NHIJ JC-2)	MIC (K. pneuminiae IFO 3317)	MIC (K. pneuminiae No. 42)	MIC (M. luteus ATCC 9341)	MIC (M. morganii IFO 3848)	MIC (P. aeruginosa AKR17)	MIC (P. aeruginosa NCTC 10490; [3])	MIC (P. cepacia)	MIC (P. mirabilis IFO 3849; [4])	MIC (P. vulugaris OX-19)	MIC (S. aureus 167)	MIC (S. aureus 195)	also measured
Nc1nnc(-c2cc[n+](CC3=C(C(=O)[O-])N4C(=O)[C@@H](NC(=O)/C(=N\O)c5csc(N)n5)[C@H]4SC3)cc2)o1 [Ex. 15, 7β-[2-(2-aminothiazol-4-yl)-2-syn-hydroxyiminoacetamido]-3-[4-(2-amino-1,3,4-oxadiazol-5-yl)pyridinio]methyl-3-cephem-4-carboxylate]	12.5 µg/mL (≈ 23 µM)	1.56 µg/mL (≈ 2.87 µM)	0.39 µg/mL (≈ 0.718 µM)	0.2 µg/mL (≈ 0.368 µM)	6.25 µg/mL (≈ 11.5 µM)	50 µg/mL (≈ 92 µM)	0.39 µg/mL (≈ 0.718 µM)	0.78 µg/mL (≈ 1.44 µM)	0.2 µg/mL (≈ 0.368 µM)	0.2 µg/mL (≈ 0.368 µM)	0.39 µg/mL (≈ 0.718 µM)	0.05 µg/mL (≈ 0.092 µM)	0.1 µg/mL (≈ 0.184 µM)	> 100 µg/mL	1.56 µg/mL (≈ 2.87 µM)	> 100 µg/mL	0.2 µg/mL (≈ 0.368 µM)	0.2 µg/mL (≈ 0.368 µM)	6.25 µg/mL (≈ 11.5 µM)	6.25 µg/mL (≈ 11.5 µM)	MIC (S. aureus 209p JC-1; [5]): 0.39 µg/mL (≈ 0.718 µM); MIC (S. aureus Smith; [6]): 0.39 µg/mL (≈ 0.718 µM); MIC (S. epidemidis IAM 1296): 0.1 µg/mL (≈ 0.184 µM); MIC (S. marcescens IAM 1184; [7]): 0.2 µg/mL (≈ 0.368 µM); MIC (S. marcescens No. 16-2): 100 µg/mL (≈ 184 µM)
CN(C)CCn1nnnc1SCC1=C(C(=O)O)N2C(=O)[C@@H](NC(=O)Cc3csc(N)n3)[C@H]2SC1 [CTM, cefotiam, reference compound]	> 100 µg/mL	6.25 µg/mL (≈ 11.9 µM)	0.39 µg/mL (≈ 0.742 µM)	0.78 µg/mL (≈ 1.48 µM)	50 µg/mL (≈ 95.1 µM)	> 100 µg/mL	0.2 µg/mL (≈ 0.38 µM)	0.2 µg/mL (≈ 0.38 µM)	0.2 µg/mL (≈ 0.38 µM)	0.2 µg/mL (≈ 0.38 µM)	0.39 µg/mL (≈ 0.742 µM)	0.39 µg/mL (≈ 0.742 µM)	0.2 µg/mL (≈ 0.38 µM)	> 100 µg/mL	> 100 µg/mL	> 100 µg/mL	0.78 µg/mL (≈ 1.48 µM)	0.39 µg/mL (≈ 0.742 µM)	> 100 µg/mL	> 100 µg/mL	MIC (A. faecalis ATCC 3750; A. faecalis ATCC 3750): 3.13 µg/mL (≈ 5.95 µM); MIC (E. cloacae ATCC 13407; E. cloacae ATCC 13407): >100 µg/mL; MIC (E. coli CSH2(RE45)): 0.39 µg/mL (≈ 0.742 µM); MIC (P. aeruginosa NCTC 10490; P. aeruginosa NCTC 10490): 100 µg/mL (≈ 190 µM); MIC (P. mirabilis IFO 3849; P. mirabilis IFO 3849): 0.39 µg/mL (≈ 0.742 µM); MIC (S. aureus 209p JC-1): 0.78 µg/mL (≈ 1.48 µM); MIC (S. aureus 209p JC-1; [5]): 1.56 µg/mL (≈ 2.97 µM); MIC (S. aureus Smith): 0.78 µg/mL (≈ 1.48 µM); MIC (S. aureus Smith; [6]): 1.56 µg/mL (≈ 2.97 µM); MIC (S. epidemidis IAM 1296): 0.39 µg/mL (≈ 0.742 µM); MIC (S. marcescens IAM 1184; S. marcescens IAM 1184): 3.13 µg/mL (≈ 5.95 µM); MIC (S. marcescens IAM 1184; [7]): 6.25 µg/mL (≈ 11.9 µM); MIC (S. marcescens No. 16-2): > 100 µg/mL
